This is an account of results in US12655092B2, “Precursor compounds of ester compounds” (University of Guelph, priority 2019, dated 2026).

“And” between values parts separate entries of the source, which are not always exact repeats. Equal values may be shown once. Marks after values point to notes of the source that are not given here.

Series [1] is described as follows: EF release from the precursor activated with 0.1 N citric acid solution, headspace GC analysis. It is filed as physicochemical. As to conditions: for EF released: after 120 min. The method, then: (§1) The cumulative release of EF from the precursor was determined using an automatic headspace analysis system (FIG. 1). The system comprising of an environmental chamber (MLR-350H, Sanyo Electric Co., Ltd. Japan), a gas chromatograph (GC 6890, Agilent Technologies Inc., Santa Clara, CA, USA) equipped with a flame ionization detector (FID), stream selection valves (EMTCA-CE, VICI Valco Inst., Houston, TX, USA), 1/16 stainless steel tubing, and a control board (SRI Instruments Inc., Las Vegas, Nev., USA). The capillary column used with the GC was Agilent J&W DB-624 (Agilent Technologies Inc., Santa Clara, CA, USA) with 30 m length, 0.53 mm I.D, and 3 μm film thickness. The temperature of the detector and the oven were 200° C. and 40° C., respectively. The flow rates of N2, H2, and O2 were 30, 50, and 200 mL/min, respectively. The calibration curve was prepared by measuring standard headspace concentration of a known amount of EF. Chromatograms were analyzed using the Peak Simple software (393-32 bit, SRI Instruments, CA, USA). At any given sampling point, the total amount of EF released into the headspace (Mt, μL) was determined according to Eqs. 5 to 7 by the addition of the recorded amount (Mr, μL) and the accumulated loss (Ml, μL) of all the previous sampling points up to that point.
To activate the release of EF, two approaches were evaluated. In the first approach, 1-2 mg of the precursor was placed in a 10 mL, glass beaker inside a hermetically sealed 1 L, glass jar as shown in FIG. 1. The headspace gas was extracted through a septum attached to the jar lid at predetermined time intervals. EF release was triggered by distributing 1 mL of 0.1 N citric acid on the precursor particles using a pipette (Fisher Scientific, Ottawa, ON, Canada) just before closing the jar and attaching it to the sampling needle. The release of EF from the precursor was studied at 5, 15, and 25° C.
(§2) The release kinetics of EF from its precursor were modeled using an empirical pseudo-first order reaction kinetic model:
(§3) [formula] where Ce is the concentration of EF in the headspace of the 1 L test jar at an infinite time; C is the EF released at time, t; C0 is the EF initial concentration (which was equal to zero in our case); and k is the release rate constants. Non-linear regression analyses were conducted to fit the release data and determine the model parameters. Results and Discussion Ethyl Formate Precursor Formation

A short description of series [2]: EF release from the precursor on citric acid-acidified nonwoven substrate at different RH, headspace GC analysis. It is filed as physicochemical. As to conditions: 25° C.; for Ce / k: fitted model. As to the method:
as §1
In the second study, the release of EF was evaluated using an acidified substrate which was prepared by impregnating 0.3 mL of 5% (w/v) citric acid/anhydrous ethanol solution into a 3×3 cm spun-bound polypropylene nonwoven, followed by drying it overnight at 40° C. The precursor (1-2 mg) was then spreaded on the top of the acidified nonwoven layer and exposed to the test relative humidity maintained in a hermetically 1 L glass jar using silica gel (0% RH) or saturated salt solutions (magnesium nitrate, 53% RH; sodium chloride, 75% RH; potassium nitrate, 94% RH) (FIG. 1) (ASTM Standard E104-02 2012; Greenspan, 1977). EF release, expressed in milligram of EF per milligram of precursor per litre of headspace air, was determined using the headspace analysis system described above.
as §2, §3

Series [3] is described as follows: Dispersion of precursor particulates in water. It is filed as physicochemical. Particulars: 5 h of stirring.
Series [4] in a line: Storage stability of the precursor at 25° C. under 0, 60 and 100% RH (EF release after storage). It is filed as physicochemical. The method, then: The stability of the precursor was studied over a period of 30 days. The precursor was stored at 25° C. under 0, 60, and 100% RH. An environmental chamber (MLR-350H, Sanyo Electric Co., Ltd. Japan) was used to control the humidity levels and temperature. Samples from each condition were tested for EF release at 1, 15, and 30th day at 25° C. using 0.1 N citric acid solution as described above.

Series [5] relates to spotted-wing Drosophila (SWD) adults. The series can be described thus: Mortality of adult SWD on blueberries exposed to EF vapor released from the precursor. It is filed as in vivo. The method, then: The EF precursor from Example 1 was activated using an acid-dispersed substrate (acidified substrate prepared in Example 1) and the moisture generated from fruit respiration to release EF vapor. In a model system utilized spotted-wing Drosophila (SWD), an invasive insect pest of many fruit crops, as the surrogate test organism. The mortality of adult SWD on blueberries was evaluated when they were exposed to the EF vapor released from the precursor. Different amounts of the EF precursor (2.5, 5.0, and 7.5 mg) were activated using the citric acid-dispersed substrate to release 1, 2, and 3 mg of EF, respectively, in a sealed 1 L glass jar containing 0, 20 or 40 g of blueberries and 10 adult SWD.

In series [6] the test system is adult weevils. Particulars: 50-55 g/m^3 headspace concentration at 4-8° C. for 24 h, apple; cited from earlier work.
The test system of series [7] is test insects in the wheat, split faba beans and sorghum bins. Particulars: 85 g/t for 4 h followed by second 85 g/t treatment, unsealed metal bins; cited from earlier work.
Series [8] deals with Rhizopus stolonifer, Colletotrichum musae, Erwinia carotovora, and Pseudomonas aeruginosa. Particulars: EF vapor, agar medium; cited from earlier work.
Series [9] has as its system Penicillium digitatum. Particulars: EF vapor 6.5-11.5 mmol/dish, agar medium; cited from earlier work.
The subject of series [10] is Saccharomyces rouxii and Saccharomyces mellis. Particulars: EF at 3 mL/lb on Deglet Noor dates; cited from earlier work.
Where [11] appears, read: 25 °C, fitted pseudo-first order model, listed as B.
The mark [12] stands for this setting: 25 °C, fitted pseudo-first order model, listed as A.

In the case of `CCOC=NNC(=O)CCCCC(=O)NN=COCC` [Precursor B, diethyl N,N′-adipoyldiformohydrazonate], the Ce is 0.792 ± 0.004^c mg/mg · L in series [1] (5 °C, fitted model); 0.456 ± 0.014^a, b mg/mg · L in series [1] (15 °C, fitted model); 0.389 ± 0.007^a, b mg/mg · L in series [1] (setting [11]); 0.072 ± 0.013^c mg/mg · L in series [2] (53% RH); 0.200 ± 0.037^b mg/mg · L in series [2] (75% RH); 0.333 ± 0.019^a mg/mg · L in series [2] (94% RH). Besides, the k in [1] (5 °C, fitted model) is listed as 0.004 ± 0.001^d min^−1; in series [1] (15 °C, fitted model) it was 0.010 ± 0.000^c min^−1; in [1] (setting [11]), 0.030 ± 0.001^b min^−1; in [2] (53% RH), 0.006 ± 0.001^b min^−1; in [2] (75% RH), 0.024 ± 0.004^a min^−1; in series [2] (94% RH) it was 0.026 ± 0.002^a min^−1. The EF released in series [1] (25 °C, listed as B) was 97.9 ± 2.0%; in series [1] (25 °C, mg EF per mg precursor per L headspace), 0.38±0.002 mg/mg · L and 0.382 ± 0.008^a mg/mg · L. The EF release entry in series [2] (0% RH, acid-dispersed substrate) is given as “no release was observed”. In series [3], the “dispersibility of precursor particulates in water” value is given as “agglomerates presisted even after 5 h of stirring”.
For orientation: mortality means the share of the test organisms that died. On to `CCOC=NNC(=O)CCCCC(=O)NN=COCC` [EF precursor, diethyl N,N′-adipoyldiformohydrazonate], for which, in [4] (stored at 0% RH, days 1, 15 and 30), the “changes in the amount of EF released after storage” value is on record as “no significant (p>0.05) changes”. Further, the “reduction in EF release” value turned out to be 18% in series [4] (stored at 60% RH, after 15 days); 45% in series [4] (stored at 60% RH, after 30 days); 62% in series [4] (stored at 100% RH, 15 days); 81% in series [4] (stored at 100% RH, 30 days). Moreover, the mortality in series [5] (after 2 h, 1 mg EF (2.5 mg precursor), 1 L jar with 40 g of blueberries) was found to be 63%; in series [5] (after 2 h, 1 mg EF, jars without blueberries), 16%; in series [5] (after 2 h, 3 mg EF (7.5 mg precursor), 1 L jar with 40 g of blueberries), 96%; in series [5] (after 2 h, 3 mg EF, jars without blueberries), 60%; in [5] (at 4 h, all the concentrations) it was 100%.
Regarding `CCOC=NNC(=O)CCCCC(=O)NN=COCC` [Precursor A, diethyl N,N′-adipoyldiformohydrazonate], the EF released in series [1] (25 °C, listed as A) was 89.0 ± 1.5%. In [1] (setting [12]), the Ce was 0.350 ± 0.005^a mg/mg · L and the k is 0.037 ± 0.000^a min^−1.
For ethyl formate [EF], in series [6], the mortality is given as 100%. Further, in series [7], the insect control result is “high level of control”. Also, the germicidal concentration in series [8] is on record as 6.5-11.5 mmol/dish. Further, the growth inhibition entry in series [9] is on record as “did not show complete inhibit”. The microbial growth inhibition result in series [10] is “able to inhibit the microbial growth”.
